According to publication PMC11085134, “Chemical Constituents and Anticancer Activities of Marine-Derived Fungus Trichoderma lixii” (Molecules, 2024):
“Also recorded” adds a separate entry of the source. Where two headings read alike, the source gives them in different places.

Assays:
[1] = tested on: KMS-11 human myeloma cell line; test: Antiproliferative WST-8 assay, KMS-11; type: cell-based; details: read-out: Antiproliferative Activity (IC50 ± SE) KMS-11
Excerpt: (§1) The assessment of antiproliferative effects is a fundamental in vitro assay in the early stages of drug discovery for the screening of potential anticancer compounds that merit further investigation and development for their therapeutic potential in the fight against cancer. The antiproliferative activity of all isolated compounds against three cancer cell lines (KMS-11, HT-29, and PANC-1) was examined by WST-8 based assay according to the manufacturer’s instructions.
(§2) The antiproliferative activity against cancer and normal cell lines was investigated by a WST-8 based assay. […] Compounds to be tested were dissolved in DMSO for stock solution (20 μg/mL) and the final concentration of DMSO was 0.5%. Then, 100 μL of corresponding medium containing 10% WST-8 (Nacalai Tesque, Inc.) was added and incubated for up to 4 h. The absorbance of the formazan products was measured at 450 nm using an iMark^TM microplate reader (Bio-Rad Laboratories, Inc. Hercules, CA, USA). […] Cisplatin (Fujifilm Wako Pure Chemical Corporation) was used as a positive control.

[2] = tested on: HT-29 human colorectal cell line; test: Antiproliferative WST-8 assay, HT-29; type: cell-based; details: read-out: Antiproliferative Activity (IC50 ± SE) HT-29
Excerpt: as §1, §2

[3] = tested on: mouse lymphoma L5178Y cell line; parameters: method as in earlier work; details: at 28 μM; cited from earlier work
[4] = tested on: PANC-1 cancer cells; test: Anti-austerity assay (cytotoxicity under glucose starvation vs normal glucose); details: for Anti-Austerity Activity Selectivity: Glucose − versus Glucose +; for Selective index (SI): IC50 high glucose versus no glucose media
Method: Human myeloma KMS-11, colorectal HT-29, and pancreatic PANC-1 cancer cells were obtained from the Japanese Collection of Research Bioresources (JCRB) Cell Bank (JCRB1179, Osaka, Japan), the American Type Culture Collection (ATCC, HTB-38, Manassas, VA, USA), and the Riken BioResource Research Center (BRC, RCB2095, Ibaraki, Japan), respectively. KMS-11, HT-29, and PANC-1 were cultured in Roswell Park Memorial Institute (RPMI)-1640 medium (Nacalai Tesque, Inc.), McCoy’s 5A medium (Gibco Thermo Fisher Scientific Inc., Waltham, MA, USA), and Dulbecco’s Modified Eagle Medium (DMEM) high glucose (Nacalai Tesque, Inc.), respectively. The culture media contained 10% fetal bovine serum (FBS, Equitech-Bio Inc., Kerrville, TX, USA) and 50 μg/mL kanamycin (Fujifilm Wako Pure Chemical Corporation, Osaka, Japan). To induce cell adaptation to nutrient starvation, PANC-1 was cultured in DMEM no glucose (Nacalai Tesque, Inc.) containing 10% dialyzed FBS (Equitech-Bio Inc.) and 50 μg/mL kanamycin. Human umbilical vein endothelial cells (HUVEC) were obtained from Kurabo Industries Ltd., Osaka, Japan (KE-4109) and cultured in HuMedia-EB2 (Kurabo Industries Ltd.) supplemented with HuMedia-EG (2% FBS, 10 ng/mL human epidermal growth factor, 1.34 μg/mL hydrocortisone, antibacterial agents, 50 μg/mL gentamicin and 50 ng/mL amphotericin B, 5 ng/mL human fibroblast growth factor-B, and 10 μg/mL heparin). Cells were incubated in a humidified incubator at 37 °C in an atmosphere of 5% CO2.
The anti-austerity activity against PANC-1 cell line was investigated by a WST-8 based assay according to the method described above. PANC-1 cells were plated in a 96-well flat bottom plate at a high density of 10,000 cells/100 μL/well in a DMEM high glucose medium overnight. The medium was removed, washed with phosphate-buffered saline (PBS, Nissui Pharmaceutical Co., Ltd., Tokyo, Japan) twice, and then replaced with either DMEM high glucose or DMEM no glucose. After incubation for 12 h, crude extracts (final concentration 100 μg/mL) or serially diluted compounds were added, and the cells were incubated for an additional 12 h. […] Selective index (SI) was based on the difference between the IC50 values obtained from the high glucose and no glucose media. Antimycin A was used as a positive control.

[5] = parameters: method as in PMID 25659618; details: oxygen-labile conjugated diene units; cited from earlier work
[6] = tested on: leukemia HL-60; parameters: method as in PMID 29144133; details: at 50 μM; cited from earlier work
[7] = tested on: colon HCT-116; parameters: method as in PMID 29144133; details: at 50 μM; cited from earlier work
[8] = tested on: complex I in helminth mitochondria; details: cited from earlier work
[9] = tested on: breast MCF-7; parameters: method as in PMID 29144133; details: at 50 μM; cited from earlier work
[10] = tested on: PANC-1 human pancreas cell line; test: Antiproliferative WST-8 assay, PANC-1; type: cell-based; details: read-out: Antiproliferative Activity (IC50 ± SE) PANC-1
Excerpt: as §1, §2

[11] = tested on: HUVEC (human umbilical vein endothelial cells); test: Antiproliferative WST-8 assay, HUVEC; type: cell-based; details: 48 h, normal cell line, read-out: Antiproliferative Activity (IC50 ± SE) HUVEC
Method: The antiproliferative activity of all eleven isolated compounds against normal cell line HUVEC was also examined by WST-8 based assay (Table 2). […] Further extensive structural modifications and in-depth structure–activity relationship studies are required to enhance efficacy and reduce the side effects on normal cells.
as §2

[12] = tested on: Escherichia coli; parameters: method as in PMID 26728965, PMID 32676071, PMID 32077325, doi:10.1007/s10600-022-03814-7; details: cited from earlier work
[13] = tested on: human cervical HeLa; parameters: method as in PMID 29144133; details: at 50 μM; cited from earlier work
[14] = tested on: lung A549; parameters: method as in PMID 29144133; details: at 50 μM; cited from earlier work
[15] = tested on: leukemia K562; parameters: method as in PMID 29144133; details: at 50 μM; cited from earlier work
[16] = tested on: KMS-11, HT-29, and PANC-1 cancer cell lines; test: Antiproliferative activity, summary over the three cancer cell lines; type: cell-based, human; details: for IC50: Homo sapiens, 48 h, KMS-11, HT-29 and PANC-1, read-out: IC50, antiproliferative, over all tested cancer cell lines
Excerpt: as §1, §2

[17] = parameters: method as in PMID 31030449, PMID 36005532; details: cited from earlier work
[18] = parameters: method as in PMID 31030449, PMID 36005532; details: cited from earlier work; remark: listed apart in the source
[19] = tested on: complex II in the mitochondrial electron transport chain; parameters: method as in PMID 31435860; details: cited from earlier work
[20] = Homo sapiens, PANC-1, 12 h, read-out: Anti-Austerity Activity (IC50 ± SE) Glucose +
[21] = Homo sapiens, PANC-1, 12 h, read-out: Anti-Austerity Activity (IC50 ± SE) Glucose −

| Compound | IC50 ([1]; Homo sapiens, KMS-11, 48 h) [µM] | IC50 ([2]; Homo sapiens, HT-29, 48 h) [µM] | Anti-Austerity Activity Selectivity [4] | IC50 [4, 20] [µM] | IC50 [4, 21] [µM] | Selective index (SI) [4] | IC50 ([10]; Homo sapiens, PANC-1, 48 h) [µM] | IC50 ([11]; Homo sapiens, HUVEC) [µM] | IC50 [16] [µM] | further results |
| --- | --- | --- | --- | --- | --- | --- | --- | --- | --- | --- |
| CCC(C)C=CC=C(C)CC(C)C=CC=CC1OC(=O)C(O)C2OC12C (stereo not shown) [Compound 9, nafuredin A] | 6.9 ± 1.84 | 11.9 ± 0.55 | selective | 76.7 ± 3.22 | 49 ± 1.31 | 2 | 15.3 ± 0.44 | 2.45 ± 0.16 | 6.9 to 15.3 | Cytotoxicity [3]: no cytotoxicity; Stability in air [5]: unstable in air; Cytotoxicity [6]: no cytotoxicity; Cytotoxicity [7]: no cytotoxicity; Inhibition of complex I in helminth mitochondria [8]: selective inhibition; Cytotoxicity [9]: no cytotoxicity; Antibacterial activity against Escherichia coli [12]: exhibited antibacterial activity; Cytotoxicity [13]: no cytotoxicity; Cytotoxicity [14]: no cytotoxicity; Cytotoxicity [15]: no cytotoxicity |
| COc1ccc2cc(NC(=O)[C@@]34C[C@@]5(O)C(ON3)[C@H](O)C=C[C@H]5S4)c(=O)oc2c1OC (stereo partly shown) [Compound 3, aspergillazine A] | 38 ± 7.72 | 22.2 ± 3.09 | selective | > 400 | 75.6 ± 4.08 | ≥ 5 | 50.3 ± 4.21 | 26.2 ± 5.51 |  |  |
| COc1ccc2cc(NC(=O)C3=NO[C@H]4[C@H](O)C=C[C@@H](Cl)[C@@]4(O)C3)c(=O)oc2c1OC [Compound 2, trichodermamide B] | 1.38 ± 0.12 | 0.73 ± 0.12 | did not display selectivity; also recorded: not selective | 11.6 ± 1.59 | 17.8 ± 4.75 |  | 3.58 ± 0.32 | 1.69 ± 0.26 | 0.7 to 3.6 |  |
| CCCCCC[C@H]1C(=O)O[C@H](C)[C@H](NC(=O)c2cccc(NC=O)c2O)C(=O)O[C@@H](C)[C@@H]1OC(=O)CC(C)C [Antimycin A, reference compound] |  |  | selective | > 300 | 0.0162 ± 0.00026 | ≥ 18,480 |  |  |  |  |
| COc1cc(O)c2c(=O)c(C)c(C)oc2c1 [Compound 8, 5-hydroxy-2,3-dimethyl-7-methoxychromone] | > 100 | > 100 |  | > 100 | > 100 |  | > 100 | > 100 | > 100 | Antimicrobial activity [17]: weak or no; DPPH scavenging activity [18]: weak or no |
| CC(C)[C@@H](C)/C=C/[C@@H](C)[C@H]1CC[C@@H]2[C@]1(C)CC[C@H]1[C@]23C=C[C@]2(C[C@@H](O)CC[C@]12C)OO3 [Compound 5, ergosterol peroxide] | > 100 | > 100 |  | > 100 | > 100 |  | > 100 | > 100 | > 100 |  |
| N.N.[Cl][Pt][Cl] [Cisplatin, reference compound] |  |  |  |  |  |  |  |  |  | IC50 ([1]; 48 h): 4.91 ± 1.06 µM; IC50 ([2]; 48 h): 10.6 ± 0.83 µM; IC50 ([4]; read-out: Anti-Austerity Activity (IC50 ± SE) Glucose +, 12 h, normal glucose (DMEM high glucose)): > 100 µM; IC50 ([4]; read-out: Anti-Austerity Activity (IC50 ± SE) Glucose −, 12 h, glucose starvation (DMEM no glucose)): > 100 µM; IC50 ([4]; read-out: IC50 against PANC-1 under both glucose starvation and normal glucose conditions, 12 h, both Glucose − and Glucose +): > 100 µM; IC50 ([10]; 48 h): 28.6 ± 3.43 µM; IC50 [11]: 13.7 ± 2.57 µM |
| COc1ccc2cc(NC(=O)C3=NO[C@H]4[C@H](O)C=C[C@@H](O)[C@@]4(O)C3)c(=O)oc2c1OC [Compound 1, trichodermamide A] | > 100 | > 100 |  | > 100 | > 100 |  | > 100 | > 100 |  | IC50 ([4]; Homo sapiens, PANC-1, 12 h, read-out: IC50 against PANC-1 under both glucose starvation and normal glucose conditions): > 100 µM; Antiproliferative activity in words ([16]; all tested cell lines): completely inactive |
| COc1ccc(C2SSC34CC5(O)C(Cl)C=CC(O)C5ON3C(=O)C2NC4=O)c(O)c1OC (stereo not shown) [Compound 4, DC1149B] | 7.6 ± 0.4 | 39.2 ± 4.6 | selective | 213 ± 4.07 | 22.4 ± 2.5 | 10 | 24.7 ± 4.44 | 6.94 ± 0.86 |  | Inhibition of complex II in the mitochondrial electron transport chain [19]: inhibition |
